These results are taken from publication PMC7982526, “Discovery of New α-Glucosidase Inhibitors: Structure-Based Virtual Screening and Biological Evaluation” (Frontiers in Chemistry, 2021).

Series [1] has as its target T1, α-Glucosidase (Sigma, G5003) derived from baker's yeast (Saccharomyces cerevisiae, UniProt P53341).
T1 construct: purchased Sigma-Aldrich G5003
The experiment in a line: biochemical. Type of series: biochemical. The settings on record: for inhibition ratio against α-glycosidase: at 100 μM; for IC50: mean ± SD of three independent experiments, six concentrations, 37°C, pH 6.8, read-out: IC50 against α-glycosidase. Here is the method: The α-glucosidase inhibitory evaluation of the purchased 52 compounds was performed according to the previously described protocol ([Tang et al., 2014]; [Ye et al., 2019]). α-Glucosidase (Sigma, G5003) derived from baker’s yeast, and pNPG (Sigma, N1377) and the substrate were both purchased from Sigma-Aldrich. […] The compounds and α-glucosidase were preincubated in phosphate buffer (37°C, 15 min). Then, 25 μL substrate buffer was added to the system to start the reaction, and the incubation was continued at 37°C for 15 min. Finally, the reaction was terminated by the addition of 50 μL 0.2 M reaction termination solution. The optical density (OD) was measured at an absorbance wavelength of 405 nm using a microplate reader (Tecan, Switzerland). The IC50 values were estimated with six different concentrations, and each sample was measured three times in parallel experiments.

A short description of series [2]: Cell viability assay (MTT). The settings on record: human, LO2 cells (normal hepatocyte cell line), 48 h treatment, read-out: IC50 toward LO2 cells (cytotoxicity). Type of series: cell-based. As for the experimental part: The LO2 cell line was cultured in a proper medium supplemented with 10% fetal bovine serum in a humidified atmosphere of 5% CO2 at 37°C. Cell suspensions were plated in 96-well plates at a density of 2 × 10^4 […]. Compounds were solubilized in DMSO at six different concentrations. After incubation for 24 h, the cells were treated with various concentrations of tested substances for 48 h and then incubated with 100 μL of MTT at 37°C for 2 h. The formazan dye product was measured by the absorbance at 490 nm on a Tecan Spark multimode microplate reader (Switzerland).

Series [3] has as its target T2, α-glucosidase (Saccharomyces cerevisiae, UniProt P53341).
T2 construct: purchased Sigma-Aldrich G5003
The experiment in a line: Kinetic assay, Lineweaver-Burk plot analysis. Type of series: biochemical. As to conditions: for inhibition type: Lineweaver-Burk plot analysis; for Ki: Lineweaver-Burk plot, substrate pNPG, secondary plot of slopes, read-out: estimated Ki. As for the experimental part:
The inhibition type of the inhibitors against α-glucosidase activities was evaluated based on a described method ([Hou et al., 2009]). Increasing concentrations of substrates pNPG were used in the absence or presence of tested compounds at four different concentrations around the IC50 values. The inhibitory kinetics of the investigated compounds on α-glucosidase was analyzed using the Lineweaver–Burk plot of the substrate concentration and velocity.

Series [4] has as its target T2, α-glucosidase. Description: Fluorescence quenching experiment. As to conditions: increasing concentration of compound, 30 min, 37°C, excitation 290 nm. Type of series: binding, baker's yeast. As for the experimental part: According to the previously reported method ([Aguilar-Moncayo et al., 2010]), all fluorescence spectra were measured on a fluorescence spectrophotometer (Agilent Cary Eclipse) equipped with a 10.0-mm quartz cell and a thermostat bath. In the fluorescence spectrophotometer, α-glucosidase (1 U/ml) was pretreated with certain concentrations of inhibitors for 30 min at 37°C. 100 μL of the above solution (pH 6.8) was added accurately to the quartz cell. The blank was used for buffer spectrum values. The fluorescence emission spectra were measured at 37°C. The excitation wavelength was 290 nm, and the emission spectrum was recorded from 320 to 500 nm.

The structures appear in SMILES notation.

T1 sequence (P53341 whole entry): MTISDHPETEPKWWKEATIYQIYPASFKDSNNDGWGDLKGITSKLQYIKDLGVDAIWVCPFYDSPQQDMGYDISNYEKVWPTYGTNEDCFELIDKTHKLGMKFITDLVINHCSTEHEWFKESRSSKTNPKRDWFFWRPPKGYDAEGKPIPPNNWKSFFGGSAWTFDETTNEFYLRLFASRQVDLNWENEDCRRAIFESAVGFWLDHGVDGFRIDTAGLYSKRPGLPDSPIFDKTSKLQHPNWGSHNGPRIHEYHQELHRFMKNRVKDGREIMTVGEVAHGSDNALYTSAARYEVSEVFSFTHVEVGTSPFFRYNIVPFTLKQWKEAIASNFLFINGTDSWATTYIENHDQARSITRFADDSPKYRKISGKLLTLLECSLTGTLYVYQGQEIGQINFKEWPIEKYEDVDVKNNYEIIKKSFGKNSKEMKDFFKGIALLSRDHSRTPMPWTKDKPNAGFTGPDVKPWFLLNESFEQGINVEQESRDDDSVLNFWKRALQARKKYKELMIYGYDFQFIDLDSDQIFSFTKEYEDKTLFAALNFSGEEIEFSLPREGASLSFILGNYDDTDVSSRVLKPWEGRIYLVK
T2 sequence (P53341 whole entry): as above

`COc1ccc(-c2c(C#N)c(SCc3nc4ccccc4[nH]3)nc(C)c2C(C)=O)cc1` [compound 44]: in series [1], the “inhibition ratio against α-glycosidase” value is recorded as “above 50%” and the IC50 was found to be 9.99 ± 0.43 µM. Further, the IC50 at 48 h in series [2] is greater than 100 µM. In addition, at α-glucosidase [3], the inhibition type entry was “noncompetitive” and the inhibition constant Ki was 15.4 µM. In addition, at α-glucosidase [4], the “fluorescence quenching of α-glycosidase” value is “gradually quenched in a type of concentration-dependent manner”.

In the case of `O=C(Nc1ccccc1C(=O)NCc1ccco1)c1ccc(F)cc1` [compound 37], in series [1], the “inhibition ratio against α-glycosidase” value was “above 50%” and the IC50 worked out at 31.3 ± 3.11 µM. Also, the IC50 at 48 h in series [2] was greater than 100 µM. Moreover, on α-glucosidase [3], the inhibition type entry is “noncompetitive” and the inhibition constant (Ki) is 11.3 µM. For the same compound, on α-glucosidase [4], the “fluorescence quenching of α-glycosidase” value was “gradually quenched in a type of concentration-dependent manner”.

As for `CSc1nc(N)nc(SCC(=O)c2ccc3c(c2)OCO3)c1C#N` [compound 22], in series [1], the “inhibition ratio against α-glycosidase” value was “above 50%” and the IC50 came to 35.2 ± 2.14 µM. Moreover, the IC50 at 48 h in series [2] was greater than 100 µM. Moreover, at α-glucosidase [3], the inhibition type entry is “noncompetitive” and the Ki was 11.3 µM. For the same compound, the “fluorescence quenching of α-glycosidase” value on α-glucosidase [4] is on record as “gradually quenched in a type of concentration-dependent manner”.

As for `Cc1cccc(-c2cc3ncn(CC(=O)NC(=O)Nc4ccccc4)c(=O)c3s2)c1` [compound 7], in series [1], the “inhibition ratio against α-glycosidase” value was “above 50%” and the IC50 was found to be 17.4 ± 1.32 µM. In addition, the IC50 at 48 h in series [2] is greater than 100 µM. Moreover, on α-glucosidase [3], the inhibition type result is “noncompetitive” and the Ki was 24.2 µM. In addition, the “fluorescence quenching of α-glycosidase” value on α-glucosidase [4] is recorded as “gradually quenched in a type of concentration-dependent manner”.
